Activity calls are given as the source filed them. The calls are words filed in the database; no cut-off is given here.

Here are results for twelve compounds from ChEMBL document CHEMBL4177585, “Discovery of berberine based derivatives as anti-influenza agent through blocking of neuraminidase” (Bioorg Med Chem, 2017).

In one series the test system is Influenza A virus. The series can be described thus: Antiviral activity against Influenza A virus (A/Puerto Rico/8/1934(H1N1)) infected in MDCK cells assessed as reduction in virus-induced cytopathogenicity incubated for 48 hrs by SRB assay. The series is classed as functional, organism-based.
Settings: not given
(Cytopathic effects are the visible damage that an infection or toxin causes in cultured cells.)
Usually IC50 stands for the concentration at which inhibition is half-maximal. In the case of `COc1cc(CN2CCN(c3cccc(Cl)c3Cl)CC2)c2cc3[n+](cc2c1O)CCc1cc2c(cc1-3)OCO2.[Cl-]`, the IC50 came to 8.37 µg/mL.
On to `COc1cc(CN2CCN(c3ccccc3[N+](=O)[O-])CC2)c2cc3[n+](cc2c1O)CCc1cc2c(cc1-3)OCO2.[Cl-]`, for which the IC50 was over 50 µg/mL.
As for `COc1cc(CN2CCN(c3ccccn3)CC2)c2cc3[n+](cc2c1O)CCc1cc2c(cc1-3)OCO2.[Cl-]`, the IC50 turned out to be 2.64 µg/mL.
Turning to `COc1cc(CN2CCN(c3ccccc3F)CC2)c2cc3[n+](cc2c1O)CCc1cc2c(cc1-3)OCO2.[Cl-]`, the IC50 amounted to 9.16 µg/mL.
In the case of `COc1ccc2cc3[n+](cc2c1OC)CCc1cc2c(cc1-3)OCO2` [BERBERINE], the IC50 worked out at 31.3 µg/mL.
Same read-out and setting: in the case of `COc1cc(CN2CCN(c3ccc(C)cc3C)CC2)c2cc3[n+](cc2c1O)CCc1cc2c(cc1-3)OCO2.[Cl-]` it was 60.1 µg/mL.
For the compound `COc1cc(Cn2c3ccccc3c3ccccc32)c2cc3[n+](cc2c1O)CCc1cc2c(cc1-3)OCO2.[Cl-]`, the IC50 is 9.79 µg/mL.
In the case of `COc1cc(CN2CCN(c3ccc(Cl)cc3)CC2)c2cc3[n+](cc2c1O)CCc1cc2c(cc1-3)OCO2.[Cl-]`, the IC50 was determined as 45.3 µg/mL.
On the same count and under the same terms, in the case of `COc1cc(CN2CCN(c3cccc(Cl)c3)CC2)c2cc3[n+](cc2c1O)CCc1cc2c(cc1-3)OCO2.[Cl-]` it was 29.6 µg/mL; in that of `COc1cc(CN2CCN(C(c3ccccc3)c3ccccc3)CC2)c2cc3[n+](cc2c1O)CCc1cc2c(cc1-3)OCO2.[Cl-]`, 3.14 µg/mL.
As for `COc1cc(CN2CCN(c3ccc4ccccc4c3)CC2)c2cc3[n+](cc2c1O)CCc1cc2c(cc1-3)OCO2.[Cl-]`, the IC50 came to 20 µg/mL.
The same measure, in the same setting: in the case of `COc1cc(CN2CCOCC2)c2cc3[n+](cc2c1O)CCc1cc2c(cc1-3)OCO2.[Cl-]` it was 44.3 µg/mL.

Test system in a further series: not listed separately
The series can be described thus: Cytotoxicity against MDCK cells incubated for 48 hrs assessed as reduction in cell viability by SRB assay. The series is classed as cell-based, Canis lupus familiaris. To be noted: dog.
In general, CC50 refers to the concentration that lowers cell viability or growth by half. For the compound `COc1cc(CN2CCN(c3cccc(Cl)c3Cl)CC2)c2cc3[n+](cc2c1O)CCc1cc2c(cc1-3)OCO2.[Cl-]`, the CC50 at 48 h was found to be 63.2 µg/mL.
As to `COc1cc(CN2CCN(c3ccccc3[N+](=O)[O-])CC2)c2cc3[n+](cc2c1O)CCc1cc2c(cc1-3)OCO2.[Cl-]`, the CC50 at 48 h is 230 µg/mL.
Take `COc1cc(CN2CCN(c3ccccn3)CC2)c2cc3[n+](cc2c1O)CCc1cc2c(cc1-3)OCO2.[Cl-]`: the CC50 at 48 h is 185 µg/mL.
The same measure, in the same setting: in the case of `COc1cc(CN2CCN(c3ccccc3F)CC2)c2cc3[n+](cc2c1O)CCc1cc2c(cc1-3)OCO2.[Cl-]` it was 68.8 µg/mL; in that of `COc1ccc2cc3[n+](cc2c1OC)CCc1cc2c(cc1-3)OCO2` [BERBERINE], 70.2 µg/mL.
With `COc1cc(CN2CCN(c3ccc(C)cc3C)CC2)c2cc3[n+](cc2c1O)CCc1cc2c(cc1-3)OCO2.[Cl-]`, the CC50 at 48 h worked out at 134 µg/mL.
The same measure, in the same setting: for `COc1cc(Cn2c3ccccc3c3ccccc32)c2cc3[n+](cc2c1O)CCc1cc2c(cc1-3)OCO2.[Cl-]` the value was 62.6 µg/mL.
With `COc1cc(CN2CCN(c3ccc(Cl)cc3)CC2)c2cc3[n+](cc2c1O)CCc1cc2c(cc1-3)OCO2.[Cl-]`, the CC50 at 48 h amounted to 480 µg/mL.
Regarding `COc1cc(CN2CCN(c3ccc4ccccc4c3)CC2)c2cc3[n+](cc2c1O)CCc1cc2c(cc1-3)OCO2.[Cl-]`, the CC50 at 48 h worked out at 150 µg/mL.
As to `COc1cc(CN2CCOCC2)c2cc3[n+](cc2c1O)CCc1cc2c(cc1-3)OCO2.[Cl-]`, the CC50 at 48 h came out at 126 µg/mL.

For a further series, the system named is Influenza A virus. The series can be described thus: Antiviral activity against Influenza A virus (A/Puerto Rico/8/1934(H1N1)) infected in MDCK cells assessed as reduction in virus-induced cytopathogenicity at 1 ug/ml pre-incubated for 1 hr with virus before virus infection of cells and measured after 48 hrs by SRB assay. The format is functional, organism-based.
Settings: not given
In the case of `COc1ccc2cc3[n+](cc2c1OC)CCc1cc2c(cc1-3)OCO2` [BERBERINE], the outcome was Active.

For another series, the target named is Neuraminidase (Influenza A virus (A/Puerto Rico/8/1934(H1N1)), UniProt P03468). The experiment in a line: Inhibition of neuraminidase in influenza A virus (A/Puerto Rico/8/1934(H1N1)) pre-incubated for 30 mins before NA-Star substrate addition for 30 mins by luminescence based assay.
Neuraminidase (Influenza A virus (A/Puerto Rico/8/1934(H1N1)), UniProt P03468), sequence (P03468 whole entry): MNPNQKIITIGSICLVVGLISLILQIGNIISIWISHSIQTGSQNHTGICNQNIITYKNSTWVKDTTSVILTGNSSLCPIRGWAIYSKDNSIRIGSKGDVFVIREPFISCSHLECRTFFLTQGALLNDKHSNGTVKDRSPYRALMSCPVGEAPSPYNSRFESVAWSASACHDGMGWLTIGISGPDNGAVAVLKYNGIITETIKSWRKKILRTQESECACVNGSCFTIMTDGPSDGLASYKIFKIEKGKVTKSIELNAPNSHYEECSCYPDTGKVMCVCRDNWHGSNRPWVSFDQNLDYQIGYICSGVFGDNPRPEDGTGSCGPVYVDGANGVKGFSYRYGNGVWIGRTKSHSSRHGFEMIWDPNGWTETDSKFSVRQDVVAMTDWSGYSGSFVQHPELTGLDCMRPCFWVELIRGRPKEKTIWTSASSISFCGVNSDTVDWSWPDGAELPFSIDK
Settings: not given
Usually Ki stands for the dissociation constant of the complex between target and ligand, obtained from inhibition or displacement. A low value points to a stronger hold on the target. For the compound `COc1cc(CN2CCN(c3cccc(Cl)c3Cl)CC2)c2cc3[n+](cc2c1O)CCc1cc2c(cc1-3)OCO2.[Cl-]`, the Ki came out at 0.35 µM.
In turn, `COc1cc(CN2CCN(c3ccccc3[N+](=O)[O-])CC2)c2cc3[n+](cc2c1O)CCc1cc2c(cc1-3)OCO2.[Cl-]` yielded a Ki of 1.34 µM.
The same measure, in the same setting: for `COc1cc(CN2CCN(c3ccccn3)CC2)c2cc3[n+](cc2c1O)CCc1cc2c(cc1-3)OCO2.[Cl-]` the value was 0.17 µM; for `COc1cc(CN2CCN(c3ccccc3F)CC2)c2cc3[n+](cc2c1O)CCc1cc2c(cc1-3)OCO2.[Cl-]`, 5.2 µM.
The compound `COc1ccc2cc3[n+](cc2c1OC)CCc1cc2c(cc1-3)OCO2` [BERBERINE] showed a Ki of 14.3 µM.
In turn, `COc1cc(CN2CCN(c3ccc(C)cc3C)CC2)c2cc3[n+](cc2c1O)CCc1cc2c(cc1-3)OCO2.[Cl-]` showed a Ki of 0.42 µM.
The compound `COc1cc(Cn2c3ccccc3c3ccccc32)c2cc3[n+](cc2c1O)CCc1cc2c(cc1-3)OCO2.[Cl-]` yielded a Ki of 0.49 µM.
Same read-out and setting: in the case of `COc1cc(CN2CCN(c3ccc(Cl)cc3)CC2)c2cc3[n+](cc2c1O)CCc1cc2c(cc1-3)OCO2.[Cl-]` it was 0.96 µM; in that of `COc1cc(CN2CCN(c3cccc(Cl)c3)CC2)c2cc3[n+](cc2c1O)CCc1cc2c(cc1-3)OCO2.[Cl-]`, 0.25 µM; in that of `COc1cc(CN2CCN(C(c3ccccc3)c3ccccc3)CC2)c2cc3[n+](cc2c1O)CCc1cc2c(cc1-3)OCO2.[Cl-]`, 0.49 µM.
`COc1cc(CN2CCN(c3ccc4ccccc4c3)CC2)c2cc3[n+](cc2c1O)CCc1cc2c(cc1-3)OCO2.[Cl-]` had an inhibitory constant (Ki) of 0.24 µM.
Compound `COc1cc(CN2CCOCC2)c2cc3[n+](cc2c1O)CCc1cc2c(cc1-3)OCO2.[Cl-]` showed an inhibition constant (Ki) of 0.48 µM.

A further series has as its system Influenza A virus. The experiment in a line: Antiviral activity against Influenza A virus (A/Puerto Rico/8/1934(H1N1)) infected in MDCK cells assessed as reduction in virus-induced cytopathogenicity at 1 ug/ml treated before virus infection and measured after 48 hrs by SRB assay relative to untreated control. The format is functional.
Settings: not given
For orientation: inhibition means how much of the control response was suppressed. In the case of `COc1ccc2cc3[n+](cc2c1OC)CCc1cc2c(cc1-3)OCO2` [BERBERINE], the inhibition at 1 µg/mL amounted to 12.1%.
